# Data as given in US6458580B1, “Fungal sulphur source and method of using the same” (Commonwealth Scientific and Industrial Research Organisation, priority 1997, dated 2002).
# Values joined by “and” are separate entries in the source; they are usually repeats but may differ in a detail not shown here. Identical values can stand only once.
# Assays:
# Fungal Zoospores = test: Effect of infusion on fungal zoospores in rumen fluid; format: in vivo, sheep; details: for Fungal Zoospores, MPA: MPA infused at 192 mg Sulphur/sheep/day; for Fungal Zoospores, MPA / Fungal Zoospores, log (+): log10 increase after infusion of MPA: individual sheep and Aver. n = 13; for Fungal Zoospores, log (+): log10 increase after infusion of MPA: versus control period
# Description: Feed was prepared as previously described (see example 4). Initially 22 sheep were fed 1 kg of alkali straw/day in the animal house for 4 days to select out sheep not eating the diet. 19 sheep were weighted and transferred to metabolism cages and feed the alkali straw diet ad-lib. Sheep were fed and on the following day the feed refusal weighted and if less then 100 g remained a further 100 g was fed; if 100-200g of feed remained the sheep was given the same amount of feed; if over 200 g of feed was left the sheep was given 100 g less feed. Over the following week another 6 sheep were moved out of the experiment (usually due to very low or erratic intakes). […] After 14 days infusion the collection period of 7 days commenced. At the end of the collection period samples of rumen digesta were taken for microbiology and other analyses. Rumen fluid was collected and fungal zoospores and total bacteria assessed as described in example 4 (the total bacteria were assessed on the same medium but without antibiotics). Cellulolytic bacteria were assessed by a most probable number count. Rumen fluid was serially diluted and subsamples of each dilution inoculated into 5 culture tubes containing an anaerobic medium containing rumen fluid and strips of filter paper. After incubation the presence of cellulolytic bacteria was detected by degradation of the paper and the numbers of positive tubes compared to tables to give a number of these bacteria in the original sample. Following the last sampling the infusion was stopped in the first group of sheep and on the following day the infusion treatment was begun in the other group of seven sheep. The second period (the crossover) was conducted in the same way as the first period with the same samples being taken at the same times. The number of zoospores in samples of strained ruminal fluid can be used to follow zoosporogenesis in the rumen and it provides a relative estimate of the size of the anaerobic fungal population. (1) Strain a sample of ruminal digesta through an open weave cloth, and collect the filtered fluid in a CO2-filled flask. (2) Serially dilute the fluid ten-fold in anaerobic dilution solution (ADS) to a final dilution of 10^−3. To do this, transfer 1 ml volumes using 1 ml disposable sterile syringes fitted with sterile 23 gauge (0.65 mm) needles to tubes containing 9 ml ADS, starting with fluid to form the 10^−1 dilution. Use a clean syringe at each dilution step. (3) Using a 1 ml syringe (and 23 ga. needle, as before) inoculate three roll tubes each with 0.2 ml of 10^−3 dilution. Immediately roll these tubes horizontally on ice until the agar sets. With the same syringe, inoculate three more roll tubes with 0.2 ml of 10^−2 dilution and roll them. Repeat with 10^−1 dilution and finally with undiluted fluid, if appropriate. (4) Incubate the roll tubes vertically at 39° C. for 5 d.
# [1] = system: Neocallimastix isolates LM1 and TGB1; Piromyces isolates SM1, CS15 and TZB2; test: In vitro growth of selected fungal isolates at different doses of MPA; format: cell-based; details: MPA 0-1.6 mM, media with 0.5% CHO, FIGS. 2a and 2b
# Description: Five isolates were recovered in standard media from cryopreservation and one isolate was obtained from the culture collection. Table 2 below indicates nature of isolates.
# Each isolate was transferred from standard media to a modification of the low sulphur media described in Example 1. Carbohydrates (glucose+cellobiose) were added to give either 0.2% (in subculture phase ) or 0.5% (in test phase)
# . Triplicate tubes of the three concentrations were inoculated with each isolate and after 3-4 days subcultured using the tubes with the best apparent growth. […] This was to be the final assessment however as some growth was obtained in the 0 controls so all tubes were subcultured again into the same type of media. After a weeks incubation growth was determined by the decrease in media pH as described in Example 1.
# Cellutolytic Bacteria = test: Effect of infusion on cellulolytic bacteria in rumen fluid (most probable number); format: in vivo; design: Cellutolytic Bacteria, MPA: unit not given here; details: individual sheep and Aver. n = 13; for Cellutolytic Bacteria, MPA: MPA infused at 192 mg Sulphur/sheep/day; for Cellutolytic Bacteria, log (+): versus control period
# Description: Feed was prepared as previously described (see example 4). Initially 22 sheep were fed 1 kg of alkali straw/day in the animal house for 4 days to select out sheep not eating the diet. 19 sheep were weighted and transferred to metabolism cages and feed the alkali straw diet ad-lib. Sheep were fed and on the following day the feed refusal weighted and if less then 100 g remained a further 100 g was fed; if 100-200g of feed remained the sheep was given the same amount of feed; if over 200 g of feed was left the sheep was given 100 g less feed. Over the following week another 6 sheep were moved out of the experiment (usually due to very low or erratic intakes). […] After 14 days infusion the collection period of 7 days commenced. At the end of the collection period samples of rumen digesta were taken for microbiology and other analyses. Rumen fluid was collected and fungal zoospores and total bacteria assessed as described in example 4 (the total bacteria were assessed on the same medium but without antibiotics). Cellulolytic bacteria were assessed by a most probable number count. Rumen fluid was serially diluted and subsamples of each dilution inoculated into 5 culture tubes containing an anaerobic medium containing rumen fluid and strips of filter paper. After incubation the presence of cellulolytic bacteria was detected by degradation of the paper and the numbers of positive tubes compared to tables to give a number of these bacteria in the original sample. Following the last sampling the infusion was stopped in the first group of sheep and on the following day the infusion treatment was begun in the other group of seven sheep. The second period (the crossover) was conducted in the same way as the first period with the same samples being taken at the same times.
structure (smiles),measurement,setting,value
"O=C(O)CCS [MPA, 3-mercaptopropanoic acid]",response in numbers of rumen fungi to infusion,"Fungal Zoospores; 192 mg Sulphur/day/sheep, with the exception of one animal","strong, positive, response"
same,"Fungal Zoospores, MPA",Fungal Zoospores,2567 per ml rumen fluid and 7083 per ml rumen fluid and 3050 per ml rumen fluid and 7283 per ml rumen fluid and 1783 per ml rumen fluid and 7250 per ml rumen fluid and 6167 per ml rumen fluid and 4417 per ml rumen fluid and 9017 per ml rumen fluid and 6467 per ml rumen fluid and 11167 per ml rumen fluid and 5383 per ml rumen fluid and 4900 per ml rumen fluid
same,"Fungal Zoospores, MPA",Fungal Zoospores; mean,5887 per ml rumen fluid
same,"Fungal Zoospores, log (+): log10 increase after infusion of MPA",Fungal Zoospores,2.7 log10 and 2.5 log10 and 2.0 log10 and 2.3 log10 and 0.4 log10 and 0.5 log10 and 0.7 log10 and 0.8 log10 and 0.2 log10 and 0.6 log10 and 1.0 log10 (2×) and 1.1 log10
same,"Fungal Zoospores, log (+): log10 increase after infusion of MPA",Fungal Zoospores; mean,1.20 log10
same,growth response of sheep versus non-sheep isolates,[1],no clear difference between the sheep and non-sheep isolates
same,"Cellutolytic Bacteria, MPA",Cellutolytic Bacteria,6.96 × 10^8 and 0.556 × 10^8 and 4.42 × 10^8 and 1.84 × 10^8 and 2.173 × 10^8 and 3.447 × 10^8 and 1.086 × 10^8 and 0.912 × 10^8 and 3.219 × 10^8 (3×) and 18.37 × 10^8 and 3.22 × 10^8
same,"Cellutolytic Bacteria, MPA",Cellutolytic Bacteria; mean,4.05 × 10^8
same,"Cellutolytic Bacteria, log (+)",Cellutolytic Bacteria,0.58 log and −0.52 log and 0.38 log and −0.24 log (2×) and 0.07 log and 0.50 log and 0.12 log and 1.76 log and 0.76 log and 1.00 log and 0.62 log and 0.47 log
same,"Cellutolytic Bacteria, log (+)",Cellutolytic Bacteria; mean,0.40 log
